In ChEMBL document CHEMBL1177848, “Synthesis of novel 6,6a,7,8-tetrahydro-5H-naphtho[1,2-e]pyrimido[4,5-b][1,4]diazepines under microwave irradiation as potential anti-tumor agents” (2010):
Activity calls are given as the source filed them. The calls are words filed in the database; no cut-off is given here.

Assays:
CAKI-1 [1] = assay: Growth inhibition of human Caki1 cells after 48 hrs by sulforhodamine B assay; format: functional; details: CAKI-1, 48 h
Malme-3M [2] = assay: Growth inhibition of human MALME-3M cells after 48 hrs by sulforhodamine B assay; format: functional
MOLT-4 = assay: Growth inhibition of human MOLT4 cells at 1 uM after 48 hrs by sulforhodamine B assay; format: functional, cell-based
786-0 = assay: Growth inhibition of human 786-0 cells at 1 uM after 48 hrs by sulforhodamine B assay; format: functional, cell-based
NCI-H322M = assay: Growth inhibition of human […] cells at 1 uM after 48 hrs by sulforhodamine B assay; format: functional, cell-based
U-251 = assay: Growth inhibition of human U251 cells after 48 hrs by sulforhodamine B assay; format: functional; details: U-251, 48 h
Malme-3M [3] = assay: Growth inhibition of human MALME-3M cells at 1 uM after 48 hrs by sulforhodamine B assay; format: functional, cell-based
ACHN [4] = assay: Growth inhibition of human ACHN cells at 1 uM after 48 hrs by sulforhodamine B assay; format: functional, cell-based
EKVX [5] = assay: Growth inhibition of human EKVX cells at 1 uM after 48 hrs by sulforhodamine B assay; format: functional, cell-based
OVCAR-3 [6] = assay: Growth inhibition of human OVCAR-3 cells at 1 uM after 48 hrs by sulforhodamine B assay; format: functional, cell-based
SF530 = assay: Growth inhibition of human SF530 cells at 1 uM after 48 hrs by sulforhodamine B assay; format: functional, cell-based
KM12 = assay: Growth inhibition of human KM12 cells after 48 hrs by sulforhodamine B assay; format: functional; details: KM12, 48 h
HCT-116 [7] = assay: Growth inhibition of human HCT116 cells after 48 hrs by sulforhodamine B assay; format: functional; details: HCT-116, 48 h
OVCAR-3 [8] = assay: Growth inhibition of human OVCAR-3 cells after 48 hrs by sulforhodamine B assay; format: functional; details: OVCAR-3, 48 h
M14 = assay: Growth inhibition of human M14 cells at 1 uM after 48 hrs by sulforhodamine B assay; format: functional, cell-based
SR = assay: Growth inhibition of human SR cells after 48 hrs by sulforhodamine B assay; format: functional
NCI-H23 = assay: Growth inhibition of human NCI-H23 cells after 48 hrs by sulforhodamine B assay; format: functional; details: NCI-H23, 48 h
UACC-257 = assay: Growth inhibition of human UACC257 cells after 48 hrs by sulforhodamine B assay; format: functional; details: UACC-257, 48 h
HCT-116 [9] = assay: Growth inhibition of human HCT116 cells at 1 uM after 48 hrs by sulforhodamine B assay; format: functional, cell-based
A498 = assay: Growth inhibition of human A498 cells at 1 uM after 48 hrs by sulforhodamine B assay; format: functional, cell-based
HT-29 = assay: Growth inhibition of human HT-29 cells at 1 uM after 48 hrs by sulforhodamine B assay; format: functional, cell-based
UACC-62 = assay: Growth inhibition of human UACC62 cells at 1 uM after 48 hrs by sulforhodamine B assay; format: functional, cell-based
UO-31 = assay: Growth inhibition of human UO31 cells at 1 uM after 48 hrs by sulforhodamine B assay; format: functional, cell-based
NCI-H460 = assay: Growth inhibition of human NCI-H460 cells after 48 hrs by sulforhodamine B assay; format: functional; details: NCI-H460, 48 h
SK-MEL-28 = assay: Growth inhibition of human SK-MEL-28 cells at 1 uM after 48 hrs by sulforhodamine B assay; format: functional, cell-based
NCI-H522 = assay: Growth inhibition of human NCI-H522 cells at 1 uM after 48 hrs by sulforhodamine B assay; format: functional, cell-based
BT-549 = assay: Growth inhibition of human BT549 cells after 48 hrs by sulforhodamine B assay; format: functional; details: BT-549, 48 h
HOP-92 [10] = assay: Growth inhibition of human HOP92 cells after 48 hrs by sulforhodamine B assay; format: functional; details: HOP-92, 48 h
NCI/ADR-RES = assay: Growth inhibition of human NCI/ADR-RES cells at 1 uM after 48 hrs by sulforhodamine B assay; format: functional, cell-based
NCI-H226 = assay: Growth inhibition of human NCI-H226 cells at 1 uM after 48 hrs by sulforhodamine B assay; format: functional, cell-based
T47D = assay: Growth inhibition of human T47D cells at 1 uM after 48 hrs by sulforhodamine B assay; format: functional, cell-based
DU-145 = assay: Growth inhibition of human DU145 cells at 1 uM after 48 hrs by sulforhodamine B assay; format: functional, cell-based
CAKI-1 [11] = assay: Growth inhibition of human Caki1 cells at 1 uM after 48 hrs by sulforhodamine B assay; format: functional, cell-based
MDA-MB-435 [12] = assay: Growth inhibition of human MDA-MB-435 cells after 48 hrs by sulforhodamine B assay; format: functional; details: MDA-MB-435, 48 h
HL-60 = assay: Growth inhibition of human HL-60(TB) cells at 1 uM after 48 hrs by sulforhodamine B assay; format: functional, cell-based
PC-3 = assay: Growth inhibition of human PC3 cells after 48 hrs by sulforhodamine B assay; format: functional; details: PC-3, 48 h
TK-10 = assay: Growth inhibition of human TK10 cells after 48 hrs by sulforhodamine B assay; format: functional; details: TK-10, 48 h
SN12C = assay: Growth inhibition of human SN12C cells after 48 hrs by sulforhodamine B assay; format: functional
EKVX [13] = assay: Growth inhibition of human EKVX cells after 48 hrs by sulforhodamine B assay; format: functional
MDA-MB-435 [14] = assay: Growth inhibition of human MDA-MB-435 cells at 1 uM after 48 hrs by sulforhodamine B assay; format: functional, cell-based
HOP-92 [15] = assay: Growth inhibition of human HOP92 cells at 1 uM after 48 hrs by sulforhodamine B assay; format: functional, cell-based
OVCAR-4 [16] = assay: Growth inhibition of human OVCAR4 cells after 48 hrs by sulforhodamine B assay; format: functional; details: OVCAR-4, 48 h
OVCAR-4 [17] = assay: Growth inhibition of human OVCAR4 cells at 1 uM after 48 hrs by sulforhodamine B assay; format: functional, cell-based
HOP-62 = assay: Growth inhibition of human HOP62 cells at 1 uM after 48 hrs by sulforhodamine B assay; format: functional, cell-based
ACHN [18] = assay: Growth inhibition of human ACHN cells after 48 hrs by sulforhodamine B assay; format: functional
SK-MEL-2 = assay: Growth inhibition of human SK-MEL-2 cells at 1 uM after 48 hrs by sulforhodamine B assay; format: functional, cell-based
MDA-MB-231 = assay: Growth inhibition of human MDA-MB-231 cells after 48 hrs by sulforhodamine B assay; format: functional; details: MDA-MB-231, 48 h
[19] = read-out: LC50 (the source's name)

Nc1nc(N)c2c(n1)NC(c1ccc(F)cc1)C1CCc3ccccc3C1=N2 (configuration not stated)
GI50 (CAKI-1 [1]): 2.72 µM | CC50 (CAKI-1 [1]; [19]): 44.6 µM | GI50 (Malme-3M [2]): 2.52 µM | LC50 (Malme-3M [2]): 68.6 µM | growth inhibition (GI) (MOLT-4): inactive | growth inhibition (GI) (786-0): inactive | growth inhibition (GI) (NCI-H322M): inactive | GI50 (U-251): 4.29 µM | LC50 (U-251): 44.1 µM | growth inhibition (GI) (Malme-3M [3]): inactive | growth inhibition (GI) (ACHN [4]): inactive | growth inhibition (GI) (EKVX [5]): inactive | growth inhibition (GI) (OVCAR-3 [6]): inactive | growth inhibition (GI) (SF530): inactive | GI50 (KM12): 4.93 µM | LC50 (concentration killing 50% of cells) (KM12): 43.1 µM | GI50 (HCT-116 [7]): 3.04 µM | LC50 (HCT-116 [7]): 34.5 µM | GI50 (OVCAR-3 [8]): 4.15 µM | LC50 (lethal concentration, 50% cell kill) (OVCAR-3 [8]): 43.2 µM | growth inhibition (GI) (M14): inactive | GI50 (SR): 1.65 µM | LC50 (SR): 12.5 µM | GI50 (NCI-H23): 4.06 µM | LC50 (NCI-H23): 46.4 µM | GI50 (UACC-257): 5.37 µM | CC50 (UACC-257; [19]): 43.3 µM | growth inhibition (GI) (HCT-116 [9]): inactive | growth inhibition (GI) (A498): inactive | growth inhibition (GI) (HT-29): inactive | growth inhibition (GI) (UACC-62): inactive | growth inhibition (GI) (UO-31): inactive | GI50 (NCI-H460): 3.76 µM | LC50 (NCI-H460): 43.3 µM | growth inhibition (GI) (SK-MEL-28): inactive | growth inhibition (GI) (NCI-H522): inactive | GI50 (BT-549): 3.89 µM | CC50 (BT-549; [19]): 43.5 µM | GI50 (HOP-92 [10]): 1.17 µM | LC50 (50% lethal concentration) (HOP-92 [10]): 31.5 µM | growth inhibition (GI) (NCI/ADR-RES): inactive | growth inhibition (GI) (NCI-H226): inactive | growth inhibition (GI) (T47D): inactive | growth inhibition (GI) (DU-145): inactive | growth inhibition (GI) (CAKI-1 [11]): inactive | GI50 (MDA-MB-435 [12]): 2.84 µM | LC50 (concentration killing 50% of cells) (MDA-MB-435 [12]): 35.1 µM | growth inhibition (GI) (HL-60): inactive | GI50 (PC-3): 2.03 µM | LC50 (PC-3): 40.3 µM | GI50 (TK-10): 3.63 µM | LC50 (50% lethal concentration) (TK-10): 50.9 µM | GI50 (SN12C): 7.8 µM | CC50 (SN12C; [19]): 50.9 µM | GI50 (EKVX [13]): 2.83 µM | LC50 (EKVX [13]): 62.6 µM | growth inhibition (GI) (MDA-MB-435 [14]): inactive | growth inhibition (GI) (HOP-92 [15]): inactive | GI50 (OVCAR-4 [16]): 3.98 µM | LC50 (50% lethal concentration) (OVCAR-4 [16]): 50.2 µM | growth inhibition (GI) (OVCAR-4 [17]): inactive | growth inhibition (GI) (HOP-62): inactive | GI50 (ACHN [18]): 4.96 µM | LC50 (50% lethal concentration) (ACHN [18]): 42.2 µM | growth inhibition (GI) (SK-MEL-2): inactive | GI50 (MDA-MB-231): 5.8 µM | CC50 (MDA-MB-231; [19]): 48.5 µM
